Active and inactive are the calls of the source. The calls are words filed in the database; no cut-off is given here.
Tests used:
A-431 = assay: Antiproliferative activity against EGFR over-expressing human A431 cells after 48 hrs by MTT assay; type: functional, cell-based
HCC827 = assay: Antiproliferative activity against human HCC827 cells harboring EGFR E746_A750 deletion mutant after 48 hrs by MTT assay; type: functional, cell-based
NCI-H1975 [1] = assay: cells; type: functional, cell-based, Homo sapiens
A549 = assay: Antiproliferative activity against human A549 cells harboring wild type EGFR after 48 hrs by MTT assay; type: functional, cell-based
L02 = assay: Antiproliferative activity against human HL7702 cells after 48 hrs by MTT assay; type: ADME, cell-based
[2] = biological target: Epidermal growth factor receptor (Homo sapiens, UniProt P00533, L858R); type: cell-based
[3] = biological target: Epidermal growth factor receptor (Homo sapiens, UniProt P00533)
Description: Inhibition of recombinant human GST-tagged EGFR cytoplasmic domain (668 to 1210 residues) expressed in baculovirus expression system by Z'-Lyte assay

[4] = biological target: Epidermal growth factor receptor (Homo sapiens, UniProt P00533, L858R/T790M); assay: Inhibition of recombinant human GST-tagged EGFR L858R/T790M double mutant cytoplasmic domain (668 to 1210 residues) expressed in baculovirus expression system by Z'-Lyte assay
NCI-H1975 [5] = assay: Induction of apoptosis in human NCI-H1975 cells harboring EGFR L858R/T790M double mutant assessed as live cells at 3 uM after 48 hrs by Annexin V/propidium iodide staining based flow cytometry (reference value: 83.5%); type: functional
NCI-H1975 [6] = assay: Induction of apoptosis in human NCI-H1975 cells harboring EGFR L858R/T790M double mutant assessed as live cells at 6 uM after 48 hrs by Annexin V/propidium iodide staining based flow cytometry (reference value: 83.5%); type: functional
NCI-H1975 [7] = assay: Induction of apoptosis in human NCI-H1975 cells harboring EGFR L858R/T790M double mutant assessed as early apoptotic cells at 9 uM after 48 hrs by Annexin V/propidium iodide staining based flow cytometry (reference value: 4.1%); type: functional
NCI-H1975 [8] = assay: Induction of apoptosis in human NCI-H1975 cells harboring EGFR L858R/T790M double mutant assessed as necrotic cells at 3 uM after 48 hrs by Annexin V/propidium iodide staining based flow cytometry (reference value: 4.13%); type: functional
NCI-H1975 [9] = assay: Induction of apoptosis in human NCI-H1975 cells harboring EGFR L858R/T790M double mutant assessed as early apoptotic cells at 3 uM after 48 hrs by Annexin V/propidium iodide staining based flow cytometry (reference value: 4.1%); type: functional
NCI-H1975 [10] = assay: Induction of apoptosis in human NCI-H1975 cells harboring EGFR L858R/T790M double mutant assessed as late apoptotic cells at 9 uM after 48 hrs by Annexin V/propidium iodide staining based flow cytometry (reference value: 7.2%); type: functional
NCI-H1975 [11] = assay: Induction of apoptosis in human NCI-H1975 cells harboring EGFR L858R/T790M double mutant assessed as necrotic cells at 6 uM after 48 hrs by Annexin V/propidium iodide staining based flow cytometry (reference value: 4.13%); type: functional
NCI-H1975 [12] = assay: Induction of apoptosis in human NCI-H1975 cells harboring EGFR L858R/T790M double mutant assessed as late apoptotic cells at 3 uM after 48 hrs by Annexin V/propidium iodide staining based flow cytometry (reference value: 7.2%); type: functional
NCI-H1975 [13] = assay: Induction of ROS generation in human NCI-H1975 cells harboring EGFR L858R/T790M double mutant assessed as fluorescence level at 12 uM after 4 hrs by DCFH-DA staining based flow cytometry; type: functional
NCI-H1975 [14] = assay: Induction of apoptosis in human NCI-H1975 cells harboring EGFR L858R/T790M double mutant assessed as necrotic cells at 9 uM after 48 hrs by Annexin V/propidium iodide staining based flow cytometry (reference value: 4.13%); type: functional
NCI-H1975 [15] = assay: Induction of ROS generation in human NCI-H1975 cells harboring EGFR L858R/T790M double mutant assessed as fluorescence level at 6 uM after 4 hrs by DCFH-DA staining based flow cytometry; type: functional
NCI-H1975 [16] = assay: Induction of ROS generation in human NCI-H1975 cells harboring EGFR L858R/T790M double mutant assessed as fluorescence level at 3 uM after 4 hrs by DCFH-DA staining based flow cytometry; type: functional
NCI-H1975 [17] = assay: Induction of apoptosis in human NCI-H1975 cells harboring EGFR L858R/T790M double mutant assessed as increase in cleaved PARP expression at 2.5 to 10 uM after 24 hrs by Western blot method; type: functional, cell-based
NCI-H1975 [18] = assay: Induction of apoptosis in human NCI-H1975 cells harboring EGFR L858R/T790M double mutant assessed as live cells at 9 uM after 48 hrs by Annexin V/propidium iodide staining based flow cytometry (reference value: 83.5%); type: functional
NCI-H1975 [19] = assay: Induction of apoptosis in human NCI-H1975 cells harboring EGFR L858R/T790M double mutant assessed as late apoptotic cells at 6 uM after 48 hrs by Annexin V/propidium iodide staining based flow cytometry (reference value: 7.2%); type: functional
NCI-H1975 [20] = assay: Induction of ROS generation in human NCI-H1975 cells harboring EGFR L858R/T790M double mutant after 4 hrs by DCFH-DA staining based flow cytometry; type: functional, cell-based
NCI-H1975 [21] = assay: Induction of apoptosis in human NCI-H1975 cells harboring EGFR L858R/T790M double mutant after 48 hrs by Annexin V/propidium iodide staining based flow cytometry; type: functional, cell-based
NCI-H1975 [22] = assay: Induction of apoptosis in human NCI-H1975 cells harboring EGFR L858R/T790M double mutant assessed as early apoptotic cells at 6 uM after 48 hrs by Annexin V/propidium iodide staining based flow cytometry (reference value: 4.1%); type: functional
NCI-H1975 [23] = assay: Induction of ROS generation in human NCI-H1975 cells harboring EGFR L858R/T790M double mutant at 15 to 60 uM after 4 hrs by DCFH-DA staining based flow cytometry; type: functional, cell-based
NCI-H1975 [24] = assay: Induction of ROS generation in human NCI-H1975 cells harboring EGFR L858R/T790M double mutant at 100 uM after 4 hrs by DCFH-DA staining based flow cytometry; type: functional, cell-based

Chain of Epidermal growth factor receptor (Homo sapiens, UniProt P00533, L858R) (P00533 25-1210 L858R limits assumed): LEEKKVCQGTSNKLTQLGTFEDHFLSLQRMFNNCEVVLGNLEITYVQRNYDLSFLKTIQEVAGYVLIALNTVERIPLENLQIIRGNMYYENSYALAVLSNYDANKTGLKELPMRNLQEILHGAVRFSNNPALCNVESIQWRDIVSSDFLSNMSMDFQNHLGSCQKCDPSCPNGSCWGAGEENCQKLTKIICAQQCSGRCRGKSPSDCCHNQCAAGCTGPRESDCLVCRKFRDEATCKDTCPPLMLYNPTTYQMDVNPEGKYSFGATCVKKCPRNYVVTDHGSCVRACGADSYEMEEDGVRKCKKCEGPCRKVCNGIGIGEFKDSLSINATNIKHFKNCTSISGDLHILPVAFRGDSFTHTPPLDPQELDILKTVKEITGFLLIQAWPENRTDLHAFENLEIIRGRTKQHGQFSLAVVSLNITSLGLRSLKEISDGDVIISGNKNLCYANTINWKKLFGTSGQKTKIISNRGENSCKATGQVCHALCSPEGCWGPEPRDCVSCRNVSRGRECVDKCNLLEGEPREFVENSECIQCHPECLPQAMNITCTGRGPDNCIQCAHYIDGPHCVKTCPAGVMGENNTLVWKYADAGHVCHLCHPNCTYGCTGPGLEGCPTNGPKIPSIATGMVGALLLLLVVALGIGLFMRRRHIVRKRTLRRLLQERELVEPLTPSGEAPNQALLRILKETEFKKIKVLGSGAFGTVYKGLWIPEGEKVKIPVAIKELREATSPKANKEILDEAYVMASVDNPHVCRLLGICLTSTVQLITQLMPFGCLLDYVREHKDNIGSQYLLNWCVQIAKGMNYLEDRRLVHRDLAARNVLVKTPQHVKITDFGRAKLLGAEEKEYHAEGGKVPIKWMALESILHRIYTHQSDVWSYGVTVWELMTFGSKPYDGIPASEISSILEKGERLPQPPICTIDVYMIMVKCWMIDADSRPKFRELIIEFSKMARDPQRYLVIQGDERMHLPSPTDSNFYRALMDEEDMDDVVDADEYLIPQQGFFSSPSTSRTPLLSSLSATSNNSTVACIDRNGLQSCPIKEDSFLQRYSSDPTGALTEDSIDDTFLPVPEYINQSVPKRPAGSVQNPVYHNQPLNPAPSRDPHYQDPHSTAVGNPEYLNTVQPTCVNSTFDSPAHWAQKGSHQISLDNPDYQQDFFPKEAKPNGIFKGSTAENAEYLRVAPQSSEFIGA
Chain of Epidermal growth factor receptor (Homo sapiens, UniProt P00533) (P00533 whole entry, the tested form may be a part): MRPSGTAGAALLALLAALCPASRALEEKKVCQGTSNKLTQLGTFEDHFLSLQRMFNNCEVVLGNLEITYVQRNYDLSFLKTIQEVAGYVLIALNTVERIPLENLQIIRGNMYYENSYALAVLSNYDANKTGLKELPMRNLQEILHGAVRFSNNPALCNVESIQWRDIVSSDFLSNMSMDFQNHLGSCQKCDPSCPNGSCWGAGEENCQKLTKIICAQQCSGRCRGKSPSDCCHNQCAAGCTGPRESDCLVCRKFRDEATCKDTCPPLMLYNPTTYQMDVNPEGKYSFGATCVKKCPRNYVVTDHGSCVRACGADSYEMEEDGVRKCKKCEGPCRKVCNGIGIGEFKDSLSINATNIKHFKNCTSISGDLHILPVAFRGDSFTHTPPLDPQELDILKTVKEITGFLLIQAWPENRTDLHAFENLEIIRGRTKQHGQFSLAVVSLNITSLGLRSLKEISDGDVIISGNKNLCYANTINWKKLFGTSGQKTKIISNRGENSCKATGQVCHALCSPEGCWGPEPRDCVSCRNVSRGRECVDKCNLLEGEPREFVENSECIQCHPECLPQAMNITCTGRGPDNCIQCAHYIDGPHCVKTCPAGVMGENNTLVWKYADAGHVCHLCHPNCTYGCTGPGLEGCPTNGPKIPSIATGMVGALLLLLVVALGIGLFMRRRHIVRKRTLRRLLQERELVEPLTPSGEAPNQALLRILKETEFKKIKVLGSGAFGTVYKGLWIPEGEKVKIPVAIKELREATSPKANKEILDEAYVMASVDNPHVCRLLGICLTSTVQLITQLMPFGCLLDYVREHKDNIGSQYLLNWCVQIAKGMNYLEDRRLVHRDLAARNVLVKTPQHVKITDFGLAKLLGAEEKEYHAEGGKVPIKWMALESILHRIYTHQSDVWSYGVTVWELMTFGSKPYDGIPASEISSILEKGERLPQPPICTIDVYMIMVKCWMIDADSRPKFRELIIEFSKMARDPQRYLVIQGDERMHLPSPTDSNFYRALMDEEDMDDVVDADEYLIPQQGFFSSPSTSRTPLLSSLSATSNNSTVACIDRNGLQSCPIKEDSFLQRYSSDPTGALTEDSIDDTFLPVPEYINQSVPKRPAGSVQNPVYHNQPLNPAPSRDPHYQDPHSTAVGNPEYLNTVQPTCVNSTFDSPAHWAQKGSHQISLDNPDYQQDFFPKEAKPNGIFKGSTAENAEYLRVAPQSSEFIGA

Row | SMILES | IC50 (A-431; a-431) [µM] | IC50 (HCC827; hcc827) [µM] | IC50 (NCI-H1975 [1]; nci-h1975) [µM] | IC50 [2] [µM] | IC50 (A-431; Homo sapiens, A-431, 48 h) [µM] | IC50 [3] [µM] | IC50 [4] [µM] | IC50 (HCC827; Homo sapiens, HCC827, 48 h) [µM] | IC50 (NCI-H1975 [1]; Homo sapiens, NCI-H1975, 48 h) [µM] | IC50 (A549; Homo sapiens, A549, 48 h) [µM] | IC50 (L02; Homo sapiens, L02, 48 h) [µM] | other results
1 | Nc1ccc2ncnc(Nc3cccc(Cl)c3)c2c1 | > 50 | 0.1 | > 50 | – | – | – | – | – | – | – | – | IC50 (A549; a549): > 100 µM; IC50 (L02; l02): > 100 µM
2 | O=C(Nc1ccc2ncnc(Nc3cccc(Cl)c3)c2c1)C1CCC2(CC1)OOC1(O2)C2CC3CC(C2)CC1C3 (stereo not given) | – | – | – | 0.0489 | 31.5 | 0.0324 | > 10 | 2.29 | 13 | 8.45 | 18.2 | –
3 | O=C(Nc1ccc2ncnc(Nc3cccc(Cl)c3)c2c1)C1CCC2(CC1)OOC1(OO2)C2CC3CC(C2)CC1C3 (stereo not given) | – | – | – | 0.374 | 8.06 | 0.38 | > 10 | 0.31 | 3.06 | 0.92 | 5.7 | Activity (NCI-H1975 [5]): 83.5%; Activity (NCI-H1975 [6]): 74.2%; Activity (NCI-H1975 [7]): 7.56%; Activity (NCI-H1975 [8]): 4.57%; Activity (NCI-H1975 [9]): 7.54%; Activity (NCI-H1975 [10]): 19.8%; Activity (NCI-H1975 [11]): 4.26%; Activity (NCI-H1975 [12]): 7.47%; Flu intensity (NCI-H1975 [13]): 6.42; Activity (NCI-H1975 [14]): 9.31%; Flu intensity (NCI-H1975 [15]): 3.53; Flu intensity (NCI-H1975 [16]): 2.59; Activity (NCI-H1975 [17]): Active; Activity (NCI-H1975 [18]): 52.2%; Activity (NCI-H1975 [19]): 8.12%; Activity (NCI-H1975 [20]): Dose-dependent effect; Activity (NCI-H1975 [21]): Dose-dependent effect; Activity (NCI-H1975 [22]): 12.7%
4 | COc1cc2ncnc(Nc3ccc(F)c(Cl)c3)c2cc1OCCCN1CCOCC1 | – | – | – | – | – | – | – | – | – | – | – | Activity (NCI-H1975 [23]): inactive
5 | O=C(Nc1ccc2nccc(Nc3cccc(Cl)c3)c2c1)C1CCC2(CC1)OOC1(O2)C2CC3CC(C2)CC1C3 (stereo in doubt; 14) | 13.6 | 17 | 22.3 | 0.146 | – | 0.128 | – | – | – | – | – | IC50 (A549; a549): 18.3 µM; IC50 (L02; l02): > 50 µM
6 | O=C(Nc1ccc2nccc(Nc3cccc(Cl)c3)c2c1)C1CCC2(CC1)OCC1(OO2)C2CC3CC(C2)CC1C3 (stereo not given) | – | – | – | 0.132 | > 50 | 0.169 | > 10 | 31.6 | > 50 | 26.1 | > 100 | Activity (NCI-H1975 [24]): inactive
7 | O=C(Nc1ccc2ncnc(Nc3cccc(Cl)c3)c2c1)C1CCC2(CC1)OOC1(CCCCC1)OO2 | – | – | – | 0.112 | 3.99 | 0.0838 | > 10 | 0.05 | 0.89 | 0.87 | 1.43 | –
8 | O=C(Nc1ccc2ncnc(Nc3cccc(Cl)c3)c2c1)C1CCC2(CC1)OCC1(OO2)C2CC3CC(C2)CC1C3 (stereo in doubt; 8) | 23.1 | 10.7 | 48.5 | 0.175 | – | 0.117 | – | – | – | – | – | IC50 (A549; a549): 24.7 µM
9 | CC1(C)OOC2(CCC(C(=O)Nc3ccc4ncnc(Nc5cccc(Cl)c5)c4c3)CC2)OO1 | – | – | – | 0.0171 | 19.6 | 0.0114 | > 10 | 0.26 | 1.77 | 3.62 | 25.8 | –
10 | O=C(Nc1ccc2nccc(Nc3cccc(Cl)c3)c2c1)C1CCC2(CC1)OOC1(O2)C2CC3CC(C2)CC1C3 (stereo in doubt; 13) | > 50 | – | – | 0.236 | – | 0.178 | > 10 | 12 | 33.4 | 25.3 | 25.5 | –
11 | O=C(O)C1CCC2(CC1)OOC1(OO2)C2CC3CC(C2)CC1C3 (stereo not given) | – | – | – | > 10 | > 100 | > 10 | > 10 | > 50 | > 50 | > 100 | > 100 | –
12 | O=C(Nc1ccc2ncnc(Nc3cccc(Cl)c3)c2c1)C1CCCCC1 | – | – | – | 0.00696 | > 50 | 0.00613 | > 10 | 2.55 | 41.8 | 6.36 | > 50 | –
13 | O=C(Nc1ccc2ncnc(Nc3cccc(Cl)c3)c2c1)C1CCC2(CC1)OCC1(OO2)C2CC3CC(C2)CC1C3 (stereo in doubt; 7) | – | 5.09 | 21.3 | 0.112 | 22 | 0.0947 | > 10 | – | – | 18 | > 100 | –
